Laboratory results published in patent publication US10624912B2, “Spirocyclic Pyridotriazine Derivatives useful as HIV integrase inhibitors” (priority 2015, dated 2020).
Like-named read-outs stand apart in the source and are kept apart here.

Test system: HIV-1
Test: HIV-1 infection assay (antiviral potency, MT4-GFP reporter cells)
Type: cell-based
Experimental: HIV-1 replication was monitored using MT4-gag-GFP clone D3 (hereafter designate MT4-GFP), which are MT-4 cells modified to harbor a GFP reporter gene, the expression of which is dependent on the HIV-1 expressed proteins tat and rev. Productive infection of an MT4-GFP cell with HIV-1 results in GFP expression approximately 24 h post-infection.
MT4-GFP cells were maintained at 37° C./5% CO2/90% relative humidity in RPMI 1640 supplemented with 10% fetal bovine serum, 100 U/ml penicillin/streptomycin, and 400 μg/ml G418 to maintain the reporter gene. For infections, MT4-GFP cells were placed in the same medium lacking G418 and infected overnight with H9IIIB or NL4-3 virus at an approximate multiplicity of infection of 0.01 in the same incubation conditions. Cells were then washed and resuspended in either RPMI 1640 containing no serum at 1.6×10^5 cells/mL (serum free conditions), 10% normal human serum at 1.6×10^5 cells/mL (10% NHS conditions) or in 100% normal human serum at 2×10^5 cells/mL (100% NHS conditions). Compound plates were prepared by dispensing compounds taken up in DMSO into wells of 384 well poly D lysine-coated plates (0.2 μl/well) using an ECHO acoustic dispenser. Each compound was tested in a 10 point serial 3-fold dilution (typical final concentrations: 4.2 μM-0.21 nM). Controls included no inhibitor (DMSO only) and a combination of three antiviral agents (efavirenz, indinavir, and the integrase strand transfer inhibitor L-002254051 at final concentrations of 4 μM each). Cells were added (50 μL/well) to compound plates and the infected cells were maintained at 37° C./5% CO2/90% relative humidity.
Infected cells were quantified at two time points, ˜48 h and ˜72 h post-infection, by counting the number of green cells in each well using an Acumen eX3 scanner. The increase in the number of green cells over ˜24 h period gives the reproductive ratio, R0, which is typically 5-15 and has been shown experimentally to be in logarithmic phase (data not shown). Inhibition of R0 is calculated for each well, and IC50 value was determined using non-linear 4-parameter curve fitting.

[1] = Human immunodeficiency virus 1, NL43, MT4-GFP cells infected with H9IIIB or NL4-3 virus, 100% normal human serum, inhibition of reproductive ratio R0, read-out: VIKING IP (nM) with 100% NHS
[2] = Human immunodeficiency virus 1, NL43, MT4-GFP cells infected with H9IIIB or NL4-3 virus, serum free conditions (0% NHS), inhibition of reproductive ratio R0, read-out: VIKING IP (nM) with 0% NHS
[3] = Human immunodeficiency virus 1, NL43, read-out: VIKING IP (nM) with 0% NHS

With CC(C)OC(=O)OCOP(=O)(CCCN1C(=O)c2c(O)c(=O)c(C(=O)NCc3ccc(F)cc3F)cn2N(CCP(=O)(OCOC(=O)OC(C)C)OCOC(=O)OC(C)C)C12CCOC2)OCOC(=O)OC(C)C (racemic) [Compound 49] as the compound, how does the IC50 [1] read?
Its IC50 is 8.8 nM.

What about the IC50 [2] of the same compound?
The IC50 was 0.3 nM.

Which results are given for CCCOP(=O)(CCN1n2cc(C(=O)NCc3ccc(F)cc3F)c(=O)c(O)c2C(=O)N(C)[C@]12CCOC2)OCC (single isomer, unassigned) [Compound 6]?
IC50 [1]: 45.9 nM; IC50 [2]: 2 nM

What does the source list for CN1C(=O)c2c(O)c(=O)c(C(=O)NCc3ccc(F)cc3F)cn2N(CCP(=O)(O)O)[C@]12CCOC2 (single isomer, unassigned) [Compound 9]?
IC50 [1]: 961 nM; IC50 [2]: 23.3 nM

Which IC50 [1] does the source give for CN1C(=O)c2c(O)c(=O)c(C(=O)NCc3ccc(F)cc3F)cn2N(CCP(=O)(O)O)[C@@]12CCOC2 (single isomer, unassigned) [Compound 10] here?
The IC50 was 449 nM.

And the IC50 [2]?
Its IC50 is 14.4 nM.

What does the source list for CCOP(=O)(CCN1C(=O)c2c(O)c(=O)c(C(=O)NCc3ccc(F)cc3F)cn2N(C)C12CCOC2)OCC (single isomer, unassigned) [Compound 45]?
IC50 [1]: 118 nM; IC50 [2]: 2.9 nM

With CN1n2cc(C(=O)NCc3ccc(F)cc3F)c(=O)c(O)c2C(=O)N(CCP(=O)(O)O)C12CCOC2 (single isomer, unassigned) [Compound 46] as the compound, how does the IC50 [1] read?
The IC50 was 775 nM.

And the IC50 [2]?
Its IC50 is 92.1 nM.

CC(C)OC(=O)OCOP(=O)(CCN1C(=O)c2c(O)c(=O)c(C(=O)NCc3ccc(F)cc3F)cn2N(C)C12CCOC2)OCOC(=O)OC(C)C (single isomer, unassigned) [Compound 47] was tested. Which IC50 [1] did it give?
The IC50 was 106 nM.

And the IC50 [2]?
Its IC50 is 2.9 nM.

CC(C)OC(=O)[C@H](C)NP(=O)(CCN1C(=O)c2c(O)c(=O)c(C(=O)NCc3ccc(F)cc3F)cn2N(C)C12CCOC2)Oc1ccccc1 (single isomer, unassigned) [Compound 48] was tested. Which IC50 [3] did it give?
Its IC50 is 23.8 nM.

CC(C)OC(=O)OCOP(=O)(CCN1n2cc(C(=O)NCc3ccc(F)cc3F)c(=O)c(O)c2C(=O)N(C)[C@@]12CCOC2)OCOC(=O)OC(C)C [Compound 11] was tested. Which IC50 [1] did it give?
The IC50 was 1.5 nM.

What about the IC50 [2] of the same compound?
Its IC50 is 0.05 nM.

For CC(C)OC(=O)OCOP(=O)(O)CCN1n2cc(C(=O)NCc3ccc(F)cc3F)c(=O)c(O)c2C(=O)N(C)[C@@]12CCOC2 [Compound 12], which IC50 [1] is on record?
Its IC50 is 156 nM.

What about the IC50 [2] of the same compound?
Its IC50 is 0.8 nM.

Which IC50 [1] does the source give for CC(C)OC(=O)OCOP(=O)(CCN1n2cc(C(=O)NCc3ccc(F)cc3F)c(=O)c(O)c2C(=O)N(C)[C@]12CCOC2)OCOC(=O)OC(C)C [Compound 13] here?
Its IC50 is 1.8 nM.

What about the IC50 [2] of the same compound?
The IC50 was 0.04 nM.

Which IC50 [1] does the source give for CC(C)OC(=O)OCOP(=O)(O)CCN1n2cc(C(=O)NCc3ccc(F)cc3F)c(=O)c(O)c2C(=O)N(C)[C@]12CCOC2 [Compound 14] here?
The IC50 was 89 nM.

And the IC50 [2]?
Its IC50 is 1.6 nM.

For CC(C)OC(=O)[C@H](C)NP(=O)(CCN1n2cc(C(=O)NCc3ccc(F)cc3F)c(=O)c(O)c2C(=O)N(C)[C@@]12CCOC2)Oc1ccccc1 (some centres unmarked) [Compound 15], which IC50 [3] is on record?
Its IC50 is 3.9 nM.

CC(C)OC(=O)[C@H](C)NP(=O)(CCN1n2cc(C(=O)NCc3ccc(F)cc3F)c(=O)c(O)c2C(=O)N(C)[C@]12CCOC2)Oc1ccccc1 (some centres unmarked) [Compound 16] was tested. Which IC50 [3] did it give?
Its IC50 is 3.7 nM.

What does the source list for CCOP(=O)(CCN1C(=O)c2c(O)c(=O)c(C(=O)NCc3ccc(F)cc3F)cn2N(C)C12CCOC2)OCC (centres unmarked) [Compound 40]?
IC50 [1]: 92.6 nM; IC50 [2]: 3.6 nM

How did the IC50 [1] turn out when CN1n2cc(C(=O)NCc3ccc(F)cc3F)c(=O)c(O)c2C(=O)N(CCP(=O)(O)O)C12CCOC2 (centres unmarked) [Compound 42] was run?
The IC50 was 447 nM.

And the IC50 [2]?
Its IC50 is 54.8 nM.

How did the IC50 [1] turn out when CC(C)OC(=O)OCOP(=O)(CCN1C(=O)c2c(O)c(=O)c(C(=O)NCc3ccc(F)cc3F)cn2N(C)C12CCOC2)OCOC(=O)OC(C)C (centres unmarked) [Compound 43] was run?
The IC50 was 43.4 nM.

And the IC50 [2]?
The IC50 was 1.2 nM.

With CC(C)OC(=O)[C@H](C)NP(=O)(CCN1C(=O)c2c(O)c(=O)c(C(=O)NCc3ccc(F)cc3F)cn2N(C)C12CCOC2)Oc1ccccc1 (some centres unmarked) [Compound 44] as the compound, how does the IC50 [3] read?
Its IC50 is 13.4 nM.
